{
  "source": "paper PMC3904663",
  "about": "(Nature, 2013)",
  "target": "Drosophila melanogaster dopamine transporter (dDATcryst) (Drosophila melanogaster, UniProt Q7K4Y6, V74A/DEL164-206/V275A/V311A/L415A/G538L)",
  "type": "binding",
  "data": [
    {"molecule": "CNCCC(Oc1ccccc1OC)c1ccccc1", "note": "(stereo not shown) [nisoxetine]", "values": [
      {"measurement": "Kd", "result": 29, "unit": "nM"}
    ]}
  ]
}
